Patent US20140200134A1, “Anthranilamide Compounds and their use as Pesticides” (BASF SE, priority 2011, published 2014)

Columns and labels:
Type in all cases: in vivo
[1] = tested on: Green Peach Aphid (Myzus persicae); experiment: Green peach aphid spray test on bell pepper plants; details: 120 h, sprayed infested bell pepper plants, after 5 days, read-out: mortality in comparison with untreated controls
Text: B.9 Green Peach Aphid (Myzus persicae)
(§1) The active compounds were formulated in cyclohexanone as a 10,000 ppm solution supplied in tubes. The tubes were inserted into an automated electrostatic sprayer equipped with an atomizing nozzle and they served as stock solutions for which lower dilutions were made in 50% acetone:50% water (v/v). A nonionic surfactant (Kinetic®) was included in the solution at a volume of 0.01% (v/v).
Bell pepper plants at the first true-leaf stage were infested prior to treatment by placing heavily infested leaves from the main colony on top of the treatment plants. Aphids were allowed to transfer overnight to accomplish an infestation of 30-50 aphids per plant and the host leaves were removed. The infested plants were then sprayed by an automated electrostatic plant sprayer equipped with an atomizing spray nozzle. The plants were dried in the sprayer fume hood, removed, and then maintained in a growth room under fluorescent lighting in a 24-hr photoperiod at about 25° C. and about 20-40% relative humidity. Aphid mortality on the treated plants, relative to mortality on untreated control plants, was determined after 5 days.

[2] = tested on: Boll weevil (Anthonomus grandis); experiment: Boll weevil microtiter plate diet test; details: 120 h, sprayed onto insect diet, egg and larval mortality after 5 days, read-out: mortality in comparison with untreated controls
Procedure: B.8 Boll weevil (Anthonomus grandis)
For evaluating control of boll weevil (Anthonomus grandis) the test unit consisted of 96-well-microtiter plates containing an insect diet and 20-30 A. grandis eggs.
(§2) The compounds were formulated using a solution containing 75% v/v water and 25% v/v DMSO. Different concentrations of formulated compounds were sprayed onto the insect diet at 5 μl, using a custom built micro atomizer, at two replications.
After application, microtiter plates were incubated at about 25±1° C. and about 75±5% relative humidity for 5 days. Egg and larval mortality was then visually assessed.

[3] = tested on: Mediterranean fruitfly (Ceratitis capitata); experiment: Mediterranean fruitfly microtiter plate diet test; details: 120 h, sprayed onto insect diet, egg and larval mortality after 5 days, read-out: mortality in comparison with untreated controls
Procedure: B.3 Mediterranean fruitfly (Ceratitis capitata)
For evaluating control of Mediterranean fruitfly (CeratitiS capitate) the test unit consisted of microtiter plates containing an insect diet and 50-80 C. capitata eggs.
as §2
After application, microtiter plates were incubated at about 28±1° C. and about 80±5% relative humidity for 5 days. Egg and larval mortality was then visually assessed.

[4] = tested on: Cowpea aphid (aphis craccivora); experiment: Cowpea aphid spray test on potted cowpea plants; details: sprayed cowpea plants, assessed after 72 hours, read-out: mortality in comparison with untreated controls
Procedure: B.1 Cowpea aphid (aphis craccivora)
The active compound was dissolved at the desired concentration in a mixture of 1:1 (vol:vol) distilled water:acetone. Surfactant (Alkamuls® EL 620) was added at a rate of 0.1% (vol/vol). The test solution was prepared at the day of use.
Potted cowpea plants were colonized with approximately 50-100 aphids of various stages by manually transferring a leaf tissue cut from infested plant 24 hours before application. Plants were sprayed after the pest population had been recorded. Treated plants were maintained on light carts at about 28° C. Percent mortality was assessed after 72 hours.

[5] = tested on: Tobacco budworm (Heliothis virescens); experiment: Tobacco budworm foliar spray test on cotton plants; details: 96 h, sprayed cotton plants, larvae, 4 days after treatment, read-out: mortality in comparison with untreated controls
Procedure: B.7 Tobacco budworm (Heliothis virescens) I
as §1
Cotton plants were grown 2 plants to a pot and selected for treatment at the cotyledon stage. Test solutions were sprayed onto the foliage by an automated electrostatic plant sprayer equipped with an atomizing spray nozzle. The plants were dried in the sprayer fume hood and then removed from the sprayer. Each pot was placed into perforated plastic bags with a zip closure. About 10 to 11 budworm larvae were placed into the bag and the bags zipped closed. Test plants were maintained in a growth room at about 25° C. and about 20-40% relative humidity for 4 days, avoiding direct exposure to fluorescent light (24 hour photoperiod) to prevent trapping of heat inside the bags. Mortality and reduced feeding were assessed 4 days after treatment, compared to untreated control plants.

[6] = tested on: Orchid thrips (dichromothrips corbetti); experiment: Orchid thrips floral-immersion test; details: dipped orchid flowers, adult thrips, 72 hours after treatment, read-out: mortality in comparison with untreated controls
Procedure: B.4 Orchid thrips (dichromothrips corbetti)
Dichromothrips corbetti adults used for bioassay were obtained from a colony maintained continuously under laboratory conditions. For testing purposes, the test compound was diluted in a 1:1 mixture of acetone:water (vol:vol), plus 0.01% vol/vol Alkamuls® EL 620 surfactant.
Thrips potency of each compound was evaluated by using a floral-immersion technique. Plastic petri dishes were used as test arenas. All petals of individual, intact orchid flowers were dipped into treatment solution and allowed to dry. Treated flowers were placed into individual petri dishes along with about 20 adult thrips. The petri dishes were then covered with lids. All test arenas were held under continuous light and a temperature of about 28° ° C. for duration of the assay. After 3 days, the numbers of live thrips were counted on each flower, and along inner walls of each petri dish. The percent mortality was recorded 72 hours after treatment.

[7] = tested on: Vetch aphid (Megoura viciae); experiment: Vetch aphid broad bean leaf disk microtiter test; details: foliar, 120 h, sprayed broad bean leaf disks, adult aphids, 5 days, read-out: mortality in comparison with untreated controls
Procedure: B.6 Vetch aphid (Megoura viciae)
For evaluating control of vetch aphid (Megoura viciae) through contact or systemic means the test unit consisted of 24-well-microtiter plates containing broad bean leaf disks. The compounds were formulated using a solution containing 75% v/v water and 25% v/v DMSO. Different concentrations of formulated compounds were sprayed onto the leaf disks at 2.5 μl, using a custom built micro atomizer, at two replications.
After application, the leaf disks were air-dried and 5-8 adult aphids placed on the leaf disks inside the microtiter plate wells. The aphids were then allowed to suck on the treated leaf disks and incubated at about 23±1° C. and about 50±5% relative humidity for 5 days. Aphid mortality and fecundity was then visually assessed.

[8] = tested on: Diamond back moth (plutella xylostella); experiment: Diamond back moth cabbage leaf-dip test; details: dipped cabbage leaves, 3rd instar larvae, 72 hours after treatment, read-out: mortality in comparison with untreated controls
Procedure: B.2 Diamond back moth (plutella xylostella)
The active compound was dissolved at the desired concentration in a mixture of 1:1 (vol:vol) distilled water:acteone. Surfactant (Alkamuls® EL 620) was added at a rate of 0.1% (vol/vol). The test solution was prepared at the day of use.
Leaves of cabbage were dipped in test solution and air-dried. Treated leaves were placed in petri dishes lined with moist filter paper and inoculated with ten 3rd instar larvae. Mortality was recorded 72 hours after treatment. Feeding damages were also recorded using a scale of 0-100%.

CNC(=O)c1cc(-n2cncn2)cc(C)c1NC(=O)c1ccc(C(F)(F)F)cc1-c1ncccc1Cl [Compound 1-2, 2-[[2-(3-chloro-2-pyridyl)-4-(trifluoromethyl)benzoyl]amino]N,3-dimethyl-5-(1,2,4-triazol-1-yl)benzamide]
> 75%: mortality at 2500 ppm [1] | mortality at 2500 ppm [2] | mortality at 2500 ppm [3] | mortality at 500 ppm [4] | mortality at 2500 ppm [5] | mortality at 500 ppm [6] | mortality at 2500 ppm [7]

CNC(=O)c1cc(/C=N/NC(N)=O)cc(C)c1NC(=O)c1ccc(C(F)(F)F)cc1-c1ncccc1Cl [Compound 1-3, 5-[(E)-(carbamoylhydrazono)methyl]-2-[[2-(3-chloro-2-pyridyl)-4-(trifluoromethyl)benzoyl]amino]-N,3-dimethyl-benzamide]
> 75%: mortality at 2500 ppm [1] | mortality at 500 ppm [4] | mortality at 2500 ppm [5]

CNC(=O)c1cc(/C=N/OC)cc(C)c1NC(=O)c1ccc(C(F)(F)F)cc1-c1ncccc1Cl [Compound 1-1, 2-[[2-(3-chloro-2-pyridyl)-4-(trifluoromethyl)benzoyl]amino]-5-[(E)-methoxyiminomethyl]-N,3-dimethyl-benzamide]
> 75%: mortality at 500 ppm [8] | mortality at 2500 ppm [1] | mortality at 2500 ppm [2] | mortality at 2500 ppm [3] | mortality at 500 ppm [4] | mortality at 2500 ppm [5] | mortality at 500 ppm [6] | mortality at 2500 ppm [7]
